Source: patent publication US6552078B2, “6-methoxy-2-naphthylacetic acid prodrugs” (priority 1999, dated 2003)

How the values were obtained:
Rat Paw Edema = assay: Rat Paw Edema; assay type: in vivo; settings: Dose (mg/kg): Example 11 80; Example 12 121
[1] = In Vitro Hydrolysis in Rat Plasma; assay type: in vitro ADME
Chemical Hydrolysis = assay type: physicochemical

Row | SMILES | Rat Paw Edema % Inhibition (Rat Paw Edema) [%] | half-life ([1]; column head pH 3, read-out: In Vitro Hydrolysis in Rat Plasma: T1/2) [min] | half-life (Chemical Hydrolysis; pH 3) [h] | half-life (Chemical Hydrolysis; pH 7.4) [h] | half-life (Chemical Hydrolysis; pH 8) [h] | metabolised at 2 h ([1]; in ˜2 h, column head pH 3, read-out: In Vitro Hydrolysis in Rat Plasma: conversion to 6-MNA) [%]
1 | COc1ccc2cc(CC(=O)NO)ccc2c1 [Example 11, N-Hydroxy-2-(6-methoxy-naphthalen-2-yl)-acetamide] | 59.6 |  |  |  |  | 
2 | COc1ccc2cc(CC(=O)OCCOCCO[N+](=O)[O-])ccc2c1 [Example 2, (6-Methoxy-naphthalen-2-yl)-acetic acid 2-(2-nitrooxy-ethoxy)-ethyl ester] |  | > 5 | > 300 | ~280 | ~280 | 
3 | COc1ccc2cc(CC(=O)OCC(C)=O)ccc2c1 [Example 1, (6-methoxy-naphthalen-2-yl)-acetic acid 2-oxo-propyl ester] |  |  | > 25 | 22 | 7 | 21
